Experimental data: ChEMBL document CHEMBL3885881, “DrugMatrix”

Species on record: Rattus norvegicus
Experiment: DrugMatrix - Regimen: Daily Repeat
Type: toxicity, organism-based, Sprague-Dawley
Parameters: regimen Daily Repeat, gender Male, age 6-8 weeks
Conditions: in vivo, po, route oral GAVAGE, vehicle .5 % CMC; for ABSOLUTE BASOPHIL / ABSOLUTE EOSINOPHIL / ABSOLUTE LYMPHOCYTE / ABSOLUTE MONOCYTE / ABSOLUTE SEGMENTED NEUTROPHIL / BASOPHIL / EOSINOPHIL / ERYTHROCYTE COUNT / HEMATOCRIT / HEMOGLOBIN / LEUKOCYTE COUNT / LYMPHOCYTE / MEAN CORPUSCULAR HEMOGLOBIN / MEAN CORPUSCULAR HEMOGLOBIN CONCENTRATION / MEAN CORPUSCULAR VOLUME / MONOCYTE / NEUTROPHIL / NUCLEATED RED BLOOD CELLS / PLATELET COUNT: tissue Blood; for ALANINE AMINOTRANSFERASE / ALBUMIN / ALKALINE PHOSPHATASE / ASPARTATE AMINOTRANSFERASE / BLOOD UREA NITROGEN / CARBON DIOXIDE / CHLORIDE / CHOLESTEROL / CREATINE PHOSPHOKINASE / CREATININE / GLUCOSE / LACTATE DEHYDROGENASE / LIPASE / PHOSPHORUS / POTASSIUM / SODIUM / TOTAL BILIRUBIN / TOTAL PROTEIN / URIC ACID: tissue Plasma
[1] = 0 mg/kg, 72 h, dose level Control, time 3 day
[2] = 0 mg/kg, 120 h, dose level Control, time 5 day
[3] = 100 mg/kg, 72 h, dose level Low, time 3 day

SMILES: NC(=O)CN1CCCC1=O
- ABSOLUTE BASOPHIL [1]: 0 CELLS/uL
- ABSOLUTE EOSINOPHIL [1]: 0 CELLS/uL
- ABSOLUTE LYMPHOCYTE [1]: 12191.17 CELLS/uL
- ABSOLUTE MONOCYTE [1]: 183.17 CELLS/uL
- ABSOLUTE SEGMENTED NEUTROPHIL [1]: 1192.33 CELLS/uL
- BASOPHIL [1]: 0%
- EOSINOPHIL [1]: 0%
- ERYTHROCYTE COUNT [1]: 5.51 x10E6/uL
- HEMATOCRIT [1]: 35.45%
- HEMOGLOBIN [1]: 13.82 G/DL
- LEUKOCYTE COUNT [1]: 13.57 x10E3/uL
- LYMPHOCYTE [1]: 89.83%
- MEAN CORPUSCULAR HEMOGLOBIN [1]: 25.1 pg
- MEAN CORPUSCULAR HEMOGLOBIN CONCENTRATION [1]: 38.98 G/DL
- MEAN CORPUSCULAR VOLUME [1]: 64.42 fL
- MONOCYTE [1]: 1.33%
- NEUTROPHIL [1]: 8.83%
- NUCLEATED RED BLOOD CELLS [1]: 0 /100WBC
- PLATELET COUNT [1]: 1118.17 x10E3/uL
- ALANINE AMINOTRANSFERASE [1]: 55 u/L
- ALBUMIN [1]: 4.15 G/DL
- ALKALINE PHOSPHATASE [1]: 449.5 u/L
- ASPARTATE AMINOTRANSFERASE [1]: 112.83 u/L
- BLOOD UREA NITROGEN [1]: 17.33 mg/dL
- CARBON DIOXIDE [1]: 29.5 mmol/L
- CHLORIDE [1]: 101 MEQ/L
- CHOLESTEROL [1]: 70 mg/dL
- CREATINE PHOSPHOKINASE [1]: 1325.83 u/L
- CREATININE [1]: 0.18 mg/dL
- GLUCOSE [1]: 171.5 mg/dL
- LACTATE DEHYDROGENASE [1]: 386 u/L
- LIPASE [1]: 10 u/L
- PHOSPHORUS [1]: 11.57 mg/dL
- POTASSIUM [1]: 6.21 MEQ/L
- SODIUM [1]: 141.65 MEQ/L
- TOTAL BILIRUBIN [1]: 0.15 mg/dL
- TOTAL PROTEIN [1]: 5.75 G/DL
- URIC ACID [1]: 1.28 mg/dL
- ABSOLUTE BASOPHIL [2]: 0 CELLS/uL
- ABSOLUTE EOSINOPHIL [2]: 138.17 CELLS/uL
- ABSOLUTE LYMPHOCYTE [2]: 13283.17 CELLS/uL
- ABSOLUTE MONOCYTE [2]: 303.83 CELLS/uL
- ABSOLUTE SEGMENTED NEUTROPHIL [2]: 1308.17 CELLS/uL
- BASOPHIL [2]: 0%
- EOSINOPHIL [2]: 1%
- ERYTHROCYTE COUNT [2]: 5.32 x10E6/uL
- HEMATOCRIT [2]: 33.8%
- HEMOGLOBIN [2]: 13.63 G/DL
- LEUKOCYTE COUNT [2]: 15.03 x10E3/uL
- LYMPHOCYTE [2]: 88.33%
- MEAN CORPUSCULAR HEMOGLOBIN [2]: 25.68 pg
- MEAN CORPUSCULAR HEMOGLOBIN CONCENTRATION [2]: 40.35 G/DL
- MEAN CORPUSCULAR VOLUME [2]: 63.67 fL
- MONOCYTE [2]: 1.83%
- NEUTROPHIL [2]: 8.83%
- NUCLEATED RED BLOOD CELLS [2]: 0 /100WBC
- PLATELET COUNT [2]: 1097.5 x10E3/uL
- ALANINE AMINOTRANSFERASE [2]: 54.5 u/L
- ALBUMIN [2]: 4.27 G/DL
- ALKALINE PHOSPHATASE [2]: 337 u/L
- ASPARTATE AMINOTRANSFERASE [2]: 94.67 u/L
- BLOOD UREA NITROGEN [2]: 17 mg/dL
- CARBON DIOXIDE [2]: 28.33 mmol/L
- CHLORIDE [2]: 101.5 MEQ/L
- CHOLESTEROL [2]: 71.33 mg/dL
- CREATINE PHOSPHOKINASE [2]: 628.17 u/L
- CREATININE [2]: 0.19 mg/dL
- GLUCOSE [2]: 177.83 mg/dL
- LACTATE DEHYDROGENASE [2]: 500.5 u/L
- LIPASE [2]: 9.5 u/L
- PHOSPHORUS [2]: 12.3 mg/dL
- POTASSIUM [2]: 5.63 MEQ/L
- SODIUM [2]: 143.03 MEQ/L
- TOTAL BILIRUBIN [2]: 0.2 mg/dL
- TOTAL PROTEIN [2]: 6.02 G/DL
- URIC ACID [2]: 1.5 mg/dL
- ABSOLUTE BASOPHIL [3]: 0 CELLS/uL
- ABSOLUTE EOSINOPHIL [3]: 0 CELLS/uL
- ABSOLUTE LYMPHOCYTE [3]: 10885.67 CELLS/uL
- ABSOLUTE MONOCYTE [3]: 0 CELLS/uL
- ABSOLUTE SEGMENTED NEUTROPHIL [3]: 981 CELLS/uL
- BASOPHIL [3]: 0%
- EOSINOPHIL [3]: 0%
- ERYTHROCYTE COUNT [3]: 5.15 x10E6/uL
- HEMATOCRIT [3]: 32.9%
- HEMOGLOBIN [3]: 13.47 G/DL
- LEUKOCYTE COUNT [3]: 11.87 x10E3/uL
- LYMPHOCYTE [3]: 92%
- MEAN CORPUSCULAR HEMOGLOBIN [3]: 26.17 pg
- MEAN CORPUSCULAR HEMOGLOBIN CONCENTRATION [3]: 40.97 G/DL
- MEAN CORPUSCULAR VOLUME [3]: 63.87 fL
- MONOCYTE [3]: 0%
- NEUTROPHIL [3]: 8%
- NUCLEATED RED BLOOD CELLS [3]: 0 /100WBC
- PLATELET COUNT [3]: 1222.67 x10E3/uL
- ALANINE AMINOTRANSFERASE [3]: 51.33 u/L
- ALBUMIN [3]: 4.07 G/DL
- ALKALINE PHOSPHATASE [3]: 403 u/L
- ASPARTATE AMINOTRANSFERASE [3]: 87.67 u/L
- BLOOD UREA NITROGEN [3]: 15 mg/dL
- CARBON DIOXIDE [3]: 25 mmol/L
- CHLORIDE [3]: 102.33 MEQ/L
- CHOLESTEROL [3]: 61 mg/dL
- CREATINE PHOSPHOKINASE [3]: 556.33 u/L
- CREATININE [3]: 0.2 mg/dL
- GLUCOSE [3]: 204.67 mg/dL
- LACTATE DEHYDROGENASE [3]: 170.67 u/L
- LIPASE [3]: 10 u/L
- PHOSPHORUS [3]: 13.13 mg/dL
- POTASSIUM [3]: 5.4 MEQ/L
- SODIUM [3]: 143.3 MEQ/L
- TOTAL BILIRUBIN [3]: 0.1 mg/dL
- TOTAL PROTEIN [3]: 5.5 G/DL
- URIC ACID [3]: 1.8 mg/dL
